Reference: patent publication US20080207498A1, “Methods for Treating Alzheimer's Disease” (priority 2005, published 2008)

Legend:
[1] = tested on: human wt tau protein (441 residues); test: Inhibition of immune complexed IgG binding to wt tau, reverse ELISA; settings: for Wt tau protein (read at 405 nm): PAP pre-incubated with peptide one hour, 60 minutes on tau coated plates (16.7 μg/ml), positive control 0.695, substrate only 0.060
Description: (§1) For this reason, a “reverse ELISA” technique was used to assess binding of the Fc region to ligands that bind to immune complexed IgG Fc. In a reverse ELISA, the enzyme (e.g., HRP) is not covalently conjugated to the Fc portion of the secondary antibody. Rather, a preformed immune complex of peroxidase-rabbit (or mouse) anti-peroxidase IgG (“PAP” complex) is used. […] In these experiments, an Fc CH2-CH3 cleft binding ligand (e.g., purified human C1q) was bound to microwell plates. In the absence of competitor, PAP complexes bound to the immobilized ligand and the reaction between HRP and its substrate produced a signal. This signal was reduced by polypeptides and compounds provided herein that inhibited PAP binding to the immobilized ligand.
PAP complexes were formed by mixing 2 μl of rabbit anti-peroxidase with 50 μl of peroxidase in 1 ml distilled water. PAP (100 μl) were pre-incubated with 100 μl of peptide for one hour. Control PAP (200 μl) also was incubated for one hour. 100 μl of either PAP or PAP/peptide was added to Falcon microtiter plates that had been coated for 24 hours with 16.7 μg/ml human wt tau protein (441 residues; Sigma-Aldrich). The PAP or peptide/PAP mixtures (100 μl) were added after one hour to tau coated plates and incubated for 60 minutes. After washing, plates were incubated with ATBS for 15 minutes, and read at 405 nm.

purified human C1q = test: Inhibition of C1q binding, reverse ELISA with PAP immune complexes; settings: for inhibition of C1q binding, ranking in words: comment on Table 1
Description: as §1
PAP complexes were formed mixing 2 μl of rabbit anti-peroxidase (Sigma Chemicals, St. Louis, Mo.) with 50 μl of peroxidase (Sigma-Aldrich, St. Louis, Mo.) in 1 ml distilled water. PAP (100 μl) were pre-incubated with 100 μl of peptide for one hour, 100 μl were pre-incubated with 100 μl of peptide or human C1q (Quidel Corp., San Diego, Calif.) for one hour. The C1q/PAP and peptide/PAP mixtures (100 μl) were incubated with C1q coated plates for 30 minutes. After washing, plates were incubated with ATBS (Quidel Corp.) for 15 minutes and read at 405 nm.

[2] = tested on: human wt β amyloid peptide 1-40; test: Inhibition of immune complexed IgG binding to wt β-amyloid peptide, reverse ELISA; settings: for Wt 1-40 β-amyloid peptide (read at 405 nm): PAP pre-incubated with peptide one hour, 60 minutes on β-amyloid coated plates (33 μg/ml), positive control 3.278, substrate only 0.061
Description: as §1
Different fragments of the Aβ peptide contribute to the amyloid plaques pathognomic for AD, and these Aβ fragments appear to stimulate microglial activation and subsequent AD neuropathology. Thus, experiments were conducted to test Aβ 1-40 for binding to immune complexes, and to determine whether the inhibitors described herein can inhibit binding of PAP immune complexes to Aβ peptide. PAP complexes were prepared by mixing 2 μl of rabbit anti-peroxidase with 50 μl of peroxidase in 1 ml distilled water. PAP (100 μl) were pre-incubated with 100 μl of peptide for one hour. Control PAP (200 μl) also were incubated for one hour, and 100 μl of either PAP or PAP/peptide was added to Falcon microtiter plates that had been coated for 24 hours with 33 μg/ml human wt β amyloid peptide 1-40 (amyloid precursor protein (APP) fragment 1-40; Sigma-Aldrich) having the sequence […]Ans-Lys-Gly-Ale-[…](SEQ ID NO:39). The PAP or peptide/PAP mixtures were incubated on the β-amyloid peptide coated plates for 60 minutes. After washing, plates were incubated with ATBS for 15 minutes and read at 405 nm.

IgG Fc = test: Binding of SEQ ID NO:16 to IgG Fc, alanine substitution; settings: alanine substitution of SEQ ID NO:16 Val-13 or Trp-14
FcγIII = test: Inhibition of FcR binding, reverse ELISA with PAP immune complexes; settings: PAP pre-incubated with peptide one hour, one hour on FcγR coated plates; lower OD = more inhibition; positive control 1.588
Description: as §1
(§2) Once the reverse ELISA protocol was established using the C1q assay, the assay was redesigned using […], FcγIIb, and FcγIII in place of C1q. Highly purified FcγIIa, FcγIIb and FcγIII were immunoadsorbed onto plastic microwells. After optimizing the FcγR reverse ELISA system, simple competitive inhibition experiments using polypeptides provided herein were conducted to investigate their ability to inhibit binding of immune complexes to purified FcγR.
(§3) Falcon microtiter plates were coated with 1:10 dilutions of highly purified FcγIIa, FcγIIb and FcγIII and incubated for 24 hours. The plates were washed and then blocked with 5×BSA blocking solution (Alpha Diagnostic International, San Antonio, Tex.) for 24 hours. PAP immune complexes were formed as described above. PAP (100 μl) were pre-incubated with 100 μl of peptide for one hour. PAP/peptide mixtures were added to the FcγR coated plates and incubated for one hour. After washing, plates were incubated with ABTS substrate for 15 minutes and read at 405 nm.

FcR = test: Inhibition of FcR binding to PAP; settings: comment on Table 2
Procedure: as §2, §3

FcγIIb = test: Inhibition of FcR binding, reverse ELISA with PAP immune complexes; settings: PAP pre-incubated with peptide one hour, one hour on FcγR coated plates; lower OD = more inhibition; positive control 1.394
Description: as §1, §2, §3

FcγIIa = test: as above; settings: PAP pre-incubated with peptide one hour, one hour on FcγR coated plates; lower OD = more inhibition; positive control 1.599
Description: as §1, §2, §3

Row | Sequence | Wt tau protein (read at 405 nm) [1] | inhibition of C1q binding, ranking in words (purified human C1q) | Wt 1-40 β-amyloid peptide (read at 405 nm) [2] | FcγIII (read at 405 nm) (FcγIII) | FcγIIb (read at 405 nm) (FcγIIb) | other results
1 | APPDCAWHLGELVWCT | 0.059 | greatest inhibition of C1q binding, almost equaling C1q itself | 0.885 | 0.670 |  | inhibition of human wt tau protein binding to PAP, ranking in words ([1]; comment on Table 3): greatest inhibition; ΔΔG, disruption of binding (IgG Fc): ≥ 2.0 kcal/mol; inhibition of FcR binding to PAP, ranking in words (FcR): greatest inhibition
2 | APPCAWHLGELVWCT |  |  |  | 0.530 |  | 
3 | DCAFHLGELVWCT |  |  |  | 0.810 | 0.510 | FcγIIa (read at 405 nm) (FcγIIa): 0.660
4 | APPCARHLGELVWCT |  | next best result |  |  |  | 
5 | APPCAFHLGELVWCT |  |  |  | 0.880 | 0.380 | 
6 | DCAWHLGELVWCT | 0.322 |  | 0.151 |  |  | OD 405 nm (purified human C1q; PAP pre-incubated with peptide or C1q for one hour, 30 minutes on C1q coated plates, lower OD = more inhibition, positive control 2.355): 1.100; inhibition of human wt β amyloid peptide binding to PAP, ranking in words ([2]; comment on Table 4): greatest inhibition
